In ChEMBL document CHEMBL4651402, “Screening of ~5500 FDA-approved drugs and clinical candidates for anti-SARS-CoV-2 activity” (2021):

Tested on: SARS-CoV-2
Test: microbe, parasite or virus in culture
Settings: Severe acute respiratory syndrome coronavirus 2, Vero C1008, 48 h

SMILES | IC50 [µM] | IC50 (read-out: pIC50 (converted)) [µM]
CCOc1nc2cccc(C(=O)O)c2n1Cc1ccc(-c2ccccc2-c2nnn[nH]2)cc1 | > 20 | > 20
CCC(C)(C)/N=C(\NC#N)Nc1cccnc1 | > 20 | > 20
CC(=O)OCC1=C(C(=O)O)N2C(=O)C(NC(=O)CSc3ccncc3)C2SC1 (centres undefined) | > 20 | > 20
CC(=O)NC(CC(=O)O)C(=O)O (centres undefined) | > 20 | > 20
CN(C)CCSc1nc2ccccc2cc1-c1ccccc1 | > 20 | > 20
O=S(=O)(O)c1ccc2ccccc2c1 | > 20 | > 20
COc1ccc(-c2ccc3cc(C(=O)O)ccc3c2)cc1C12CC3CC(CC(C3)C1)C2 | > 20 | > 20
N#CC[C@@H](C1CCCC1)n1cc(-c2ncnc3[nH]ccc23)cn1 | > 20 | > 20
Cc1c[nH]c2ccccc12 | > 20 | > 20
CCOC(=O)C(CCc1ccccc1)NC(C)C(=O)N1CC2(CC1C(=O)O)SCCS2 (centres undefined) | > 20 | > 20
N[C@H](Cc1ccc(F)cc1)C(=O)O | > 20 | > 20
CCCC(=O)OC1(C(=O)CO)CCC2C3CCC4=CC(=O)CCC4(C)C3C(O)CC21C (centres undefined) | > 20 | > 20
C=CCn1c(=O)n(C2OC(CO)C(O)C2O)c2nc(N)[nH]c(=O)c21 (centres undefined) | > 20 | > 20
CN(C)[C@@H]1C(O)=C(C(N)=O)C(=O)[C@@]2(O)C(O)=C3C(=O)c4c(O)ccc(Cl)c4[C@@](C)(O)C3C[C@@H]12 (some centres undefined) | > 20 | > 20
CCCC(=O)O[C@]1(C(=O)CCl)C(C)CC2C3CCC4=CC(=O)C=CC4(C)[C@@]3(F)C(=O)CC21C (some centres undefined) | > 20 | > 20
CC(=O)OCC(=O)C1(O)CCC2C3CCC4=CC(=O)C=CC4(C)C3C(O)CC21C (centres undefined) | > 20 | > 20
CC1=C(C(=O)O)N2C(=O)C(NC(=O)C(N)c3ccc(O)cc3)C2SC1 (centres undefined) | > 20 | > 20
C[C@H]([C@@H](N)C(=O)N[C@@H](C(=O)O)[C@@H]1O[C@H](n2ccc(=O)[nH]c2=O)[C@@H](O)[C@H]1O)[C@@H](O)c1ccc(O)cn1 | > 20 | > 20
CC12CCC3C(CCC4=CC(=O)C=CC43C)C1CCC(=O)O2 (centres undefined) | > 20 | > 20
C[N+]1(C)C2CCC1CC(OC(=O)C(CO)c1ccccc1)C2 (centres undefined) | > 20 | > 20
C1=CN2CC(c3cccs3)N=C2S1 (centres undefined) | > 20 | > 20
CCC(C)C(=O)OC1CC2(C)C(c3ccoc3)OC(=O)CC23OC2(C)OC34C(OC(=O)C(C)C)C3(O)C(OC(=O)C5(C)OC5C)C5(C)CC3(O)C(C)(C5CC(=O)OC)C14O2 (centres undefined) | > 20 | > 20
O=C1Nc2ccc(Cl)cc2[C@](C#CC2CC2)(C(F)(F)F)O1 | > 20 | > 20
CC(C1=C(CCN(C)C)Cc2ccccc21)c1ccccn1 (centres undefined) | > 20 | > 20
CC1CC(C)C(=O)C(C(O)CC2CC(=O)NC(=O)C2)C1 (centres undefined) | > 20 | > 20
CCO[C@H](COc1ccc(C(F)(F)F)cc1)CSc1ccc(OCC(=O)O)c(C)c1 | > 20 | > 20

SMILES | IC50 [µM] | IC50 (read-out: pIC50 (converted)) [µM]
C[C@H]1O[C@@H](Oc2c(-c3ccc(O)c(O)c3)oc3cc(O)cc(O)c3c2=O)[C@@H](O)[C@@H](O)[C@@H]1O | > 20 | > 20
CNC(=O)Oc1ccc2c(c1)[C@]1(C)CCN(C)C1N2C (some centres undefined) | > 20 | > 20
C[Si](C)(C)c1cccc(C(=O)C(F)(F)F)c1 | > 20 | > 20
COc1ccc(CC(N)C(=O)NC2C(CO)OC(n3cnc4c(N(C)C)ncnc43)C2O)cc1 (centres undefined) | > 20 | > 20
ClCCN(Cc1ccccc1)Cc1ccccc1 | > 20 | > 20
CCC(=O)OC(OP(=O)(CCCCc1ccccc1)CC(=O)N1C[C@H](C2CCCCC2)C[C@H]1C(=O)O)C(C)C (some centres undefined) | > 20 | > 20
CC1C2Cc3ccc(O)cc3C1(C)CCN2C (centres undefined) | > 20 | > 20
CC1(Cn2ccnn2)[C@H](C(=O)O)N2C(=O)C[C@H]2S1(=O)=O (some centres undefined) | > 20 | > 20
CC(C)C[C@H](NC(=O)N1CCCCCC1)C(=O)N[C@H](Cc1cn(C)c2ccccc12)C(=O)N[C@H](Cc1ccccn1)C(=O)O | > 20 | > 20
COc1ccc(C(=O)Nc2c(Cl)cncc2Cl)cc1OC1CCCC1 | > 20 | > 20
C=C[C@](C)(O)CC[C@H]1C(=C)C[C@H](O)[C@H]2C(C)(C)CCC[C@]12C | > 20 | > 20
O=C(O)CC[N+](=O)[O-] | > 20 | > 20
CC[C@@H]1C[C@]1(NC(=O)[C@@H]1C[C@@H]2CN1C(=O)[C@H](C(C)(C)C)NC(=O)OCC(C)(C)CCCCc1cccc3c1CN(C3)C(=O)O2)C(=O)NS(=O)(=O)C1CC1 | > 20 | > 20
NC[C@@H]1OB(O)c2c(OCCCO)cccc21 | > 20 | > 20
C[C@H]1N=C(N)O[C@@H]1c1ccccc1 | > 20 | > 20
COc1c2c(cc3c1C(O)N(C)CC3)OCO2 (centres undefined) | > 20 | > 20
[2H]C([2H])(CCCCCCCC)C([2H])([2H])CCCCCC(=O)OC1CCCn2c1nc(C)c(CCN1CCC(c3noc4cc(F)ccc34)CC1)c2=O (centres undefined) | > 20 | > 20
CCC1CCCC(OC2CCC(N(C)C)C(C)O2)C(C)C(=O)C2=CC3C(C=C(C)C4CC(OC5OC(C)C(OC)C(OC)C5OC)CC43)C2CC(=O)O1.CCC1CCCC(OC2CCC(N(C)C)C(C)O2)C(C)C(=O)C2=CC3C(C=CC4CC(OC5OC(C)C(OC)C(OC)C5OC)CC43)C2CC(=O)O1 (centres undefined) | > 20 | > 20
COc1ccc2c(c1)CCC1C2CCC2(C)C(O)CCC12 (centres undefined) | > 20 | > 20
NCC1O[C@H](O[C@@H]2C(N)C[C@@H](N)C(O[C@H]3OC(CO)[C@@H](O)C(N)C3O)C2O)C(N)C(O)[C@@H]1O (some centres undefined) | > 20 | > 20
CC12CCC(C(C(=O)O)C1=O)C2(C)C (centres undefined) | > 20 | > 20
C[N+]12CCC34c5ccccc5N5C(=O)CC6OCC=C(C1)C(CC32)C6C54 (centres undefined) | > 20 | > 20
CC(C)=CCCC(C)C1CCC2(C)C3=C(CCC12C)C1(C)CCC(O)C(C)(C)C1CC3 (centres undefined) | > 20 | > 20
COc1ccc2c(c1OC)C13CCN(C)C(C2)C1(O)CCC(O)C3 (centres undefined) | > 20 | > 20
CCCn1c(=O)c2[nH]c(C3CC4CC3[C@H]3O[C@@H]43)nc2n(CCC)c1=O (some centres undefined) | > 20 | > 20
CCO[C@@H]1O[C@@H]2O[C@@]3(C)CC[C@@H]4[C@H](C)CC[C@@H]([C@H]1C)[C@@]24OO3 | > 20 | > 20

SMILES | IC50 [µM] | IC50 (read-out: pIC50 (converted)) [µM]
O=C(O)C(O)C(O)C(O)C(O)C(O)CO (centres undefined) | > 20 | > 20
CN1[C@@H]2CC[C@H]1CC(NC(=O)n1c(=O)[nH]c3ccccc31)C2 (some centres undefined) | > 20 | > 20
CC(=O)OC1C[C@@]2(C)[C@@H](C[C@@H](O)C3[C@]2(C)CC[C@H]2[C@H](C)[C@H](O)CC[C@]32C)/C1=C(\CCC=C(C)C)C(=O)O (some centres undefined) | > 20 | > 20
[2H]c1c(C([2H])([2H])[2H])nc(N2CC3CN(C(=O)c4c(F)cccc4-n4nccn4)CC3C2)nc1C([2H])([2H])[2H] (centres undefined) | > 20 | > 20
O=C(O)CCCC[C@H]1SC[C@H]2NC(=O)N[C@H]21 | > 20 | > 20
CC(C)CCCC(C)C1CCC2C3CCC4CC(=O)CCC4(C)C3CCC12C (centres undefined) | > 20 | > 20
CCCCCCCCCCCC[N+](C)(C)CC(=O)O | > 20 | > 20
CC12CCC3C(CC[C@H]4C[C@H](Cl)CCC34C)C1CCC2=O (some centres undefined) | > 20 | > 20
CN(C)CC/C=C1\c2ccccc2CN(C)c2ccccc21 | > 20 | > 20
CCCCCC(C)(O)/C=C/C1CCC(=O)C1CCCCCCC(=O)O (centres undefined) | > 20 | > 20
Cc1nc2n(c(=O)c1CCN1CCC(c3noc4cc(F)ccc34)CC1)CCC[C@@H]2O | > 20 | > 20
CN1CC(O)C2=CC(=NNC(N)=O)C(=O)C=C21 (centres undefined) | > 20 | > 20
CC(=O)[C@@]1(O)CCC2C3C[C@H](C)C4=CC(=O)CCC4(C)C3CCC21C (some centres undefined) | > 20 | > 20
CC1O[C@@H](OC2C(O)[C@H](OCCc3ccc(O)c(O)c3)OC(CO)[C@H]2OC(=O)/C=C/c2ccc(O)c(O)c2)C(O)C(O)[C@H]1O (some centres undefined) | > 20 | > 20
CC[C@H](C)n1ncn(-c2ccc(N3CCN(c4ccc(OC[C@H]5CO[C@@](Cn6cncn6)(c6ccc(F)cc6F)O5)cc4)CC3)cc2)c1=O | > 20 | > 20
C[C@]12C=CC(=O)C=C1CCC1C2C(O)C[C@@]2(C)C1CC[C@]2(O)C(=O)COC(=O)c1cccc(S(=O)(=O)O)c1 (some centres undefined) | > 20 | > 20
N[C@H](CCC(=O)NCCS(=O)(=O)O)C(=O)O | > 20 | > 20
C[C@@H]1CC2C3CCC4=CC(=O)C=CC4(C)[C@@]3(Cl)C(Cl)CC2(C)[C@@]1(O)C(=O)CO (some centres undefined) | > 20 | > 20
CC(=O)OC1CCC2(C)C3CC=C4C5CC(C)(C)CCC5(C(=O)O)CC[C@@]4(C)C3(C)CC[C@H]2C1(C)C (some centres undefined) | > 20 | > 20
C=C1[C@H](CO)[C@@H](O)C[C@@H]1n1cnc2c(=O)[nH]c(N)nc21 | > 20 | > 20
CC1=NC(=O)[C@](CCN(C(C)C)C(C)C)(c2ccccc2)[C@H]2CCCCN12 | > 20 | > 20
CCOC(=O)[C@H](CCc1ccccc1)N[C@@H](C)C(=O)N1CCC[C@H]1C(=O)O | > 20 | > 20
COc1ccc(S(=O)(=O)N2C(=O)[C@@](c3ccccc3OC)(N3C[C@H](O)C[C@H]3C(=O)N(C)C)c3cc(Cl)ccc32)c(OC)c1 | > 20 | > 20
N=C(Nc1ccccc1)Nc1ccccc1 | > 20 | > 20
Nc1cccc2c1C(=O)c1cccc(N)c1C2=O | > 20 | > 20
